Measurements published in publication PMC4774972, “Activity and Predicted Nephrotoxicity of Synthetic Antibiotics Based on Polymyxin B” (Journal of Medicinal Chemistry, 2016).
Bridge positions count the residues as written; N and C are the ends. Square brackets hold non-standard residues; d marks the D form. Peptide text beside a SMILES is read from it. * marks the point of attachment. Octanoyl = CCCCCCCC(=O)*; Dab = NCC[C@H](N)C(=O)O

Key:
[1] = tested on: A. baumannii CI Ptyela 100734512:2, PmxR; details: MIC A. baumannii CI Ptyela 100734512:2, PmxR (µg/mL)
K. pneumoniae ATCC 13883 = details: MIC K. pneumoniae ATCC 13883 (µg/mL)
[2] = tested on: K. pneumoniae CI 138-16357-20362, PmxR; details: MIC K. pneumoniae CI 138-16357-20362, PmxR (µg/mL)
[3] = tested on: K. pneumoniae CI Koprana 100650661:1, PmxR; details: MIC K. pneumoniae CI Koprana 100650661:1, PmxR (µg/mL)
[4] = tested on: P. aeruginosa FADDI-PA070, PmxR; details: MIC P. aeruginosa FADDI-PA070, PmxR (µg/mL)
[5] = tested on: P. aeruginosa PA9704, PmxR; details: MIC P. aeruginosa PA9704, PmxR (µg/mL)
[6] = tested on: S. aureus ATCC 25923, MSSA; details: MIC S. aureus ATCC 25923, MSSA (µg/mL)
HepG2 = details: CC50 HepG2 (µM)
[7] = tested on: K. pneumoniae CI 138-16357-20362, PmxR; experiment: microbe, parasite or virus in culture; type: cell-based, Klebsiella pneumoniae; details: carbapenem & polymyxin resistant clinical isolate; MHB, 5 × 10^5 CFU/mL, 18 h at 37 °C
Protocol: (§1) Bacteria were either obtained from American Type Culture Collection (ATCC; Manassas, VA, USA) or independent academic clinical isolate collections, as listed in Table S2. Bacteria were cultured in nutrient broth (NB; Bacto Laboratories, catalog no. 234000) or Muller Hinton broth (MHB; Bacto Laboratories, catalog no. 211443) at 37 °C overnight with shaking (∼180 rpm). A sample of each culture was then diluted 50-fold in fresh MHB and incubated at 37 °C for 1.5–3 h with shaking (∼180 rpm). Compound stock solutions were prepared as 0.64 or 2.56 mg/mL in water. The compounds, at twice the final desired concentration, were serially diluted 2-fold across the wells of 96-well plates (Polystyrene, Corning, catalogue No. 3370). Mid log phase bacterial cultures (after 1.5–3 h incubation) were diluted to a final concentration of 5 × 10^5 colony forming units (CFU)/mL, and 50 μL was added to each well giving a final compound concentration range of 32 μg/mL to 0.015 μg/mL (128–0.06 μg/mL for colistin and polymyxin B against the polymyxin resistant clinical isolates). MICs were determined visually after 18 h of incubation at 37 °C, with the MIC defined as the lowest compound concentration at which no bacterial growth was visible.
(§2) Table S2. Bacterial strains used for Minimum Inhibitory Concentration (MIC) […]
(§3) Organism Strain Strain description Strain Source
(§4) Escherichia coli ATCC 25922 FDA strain Seattle 1946 ATCC
(§5) Klebsiella pneumoniae ATCC 13883 Control strain ATCC
(§6) Klebsiella pneumoniae ATCC 700603 Multi-drug resistant ATCC
(§7) Klebsiella pneumoniae BAA-2146 Metallo-beta-lactamase- ATCC
(§8) Acinetobacter baumannii ATCC 19606 Type strain ATCC
(§9) Pseudomonas aeruginosa ATCC 27853 Type strain ATCC
(§10) Pseudomonas aeruginosa FADDI-PA070 Clinical isolate, Nation and Li labs, polymyxin resistant Monash University
(§11) Clinical isolate, Wang Hengzhuang, Pseudomonas aeruginosa PA9704 polymyxin resistant University Hospital of […]
(§12) Ptyela Clinical isolate, Ilias Karaiskos and Acinetobacter baumannii Carbapenem & Helen Giamarellou
(§13) Clinical isolate, Medicine, Hygeia
(§14) Klebsiella pneumoniae Koprana Carbapenem, & General Hospital, […]
(§15) Clinical isolate, (Instituto Dante […]
(§16) polymyxin resistant Cardiologia, São […]

[8] = tested on: K. pneumoniae CI Koprana 100650661:1, PmxR; experiment: microbe, parasite or virus in culture; type: cell-based, Klebsiella pneumoniae; details: carbapenem & polymyxin resistant clinical isolate; MHB, 5 × 10^5 CFU/mL, 18 h at 37 °C
Protocol: as §1, §2, §3, §4, §5, §6, §7, §8, §9, §10, §11, §12, §13, §14, §15, §16

| Structure (SMILES) | MIC [1] | MIC (K. pneumoniae ATCC 13883) | MIC [2] | MIC [3] | MIC [4] | MIC [5] | MIC [6] | CC50 (HepG2) | MIC K. pneumoniae CI 138-16357-20362, PmxR [7] | MIC K. pneumoniae CI Koprana 100650661:1, PmxR [8] |
| --- | --- | --- | --- | --- | --- | --- | --- | --- | --- | --- |
| CCCCCCCC(=O)N[C@@H](CCN)C(=O)N[C@H](C(=O)N[C@@H](CCN)C(=O)N[C@H]1CCNC(=O)[C@H]([C@@H](C)O)NC(=O)[C@H](CCCNC(=N)N)NC(=O)[C@H](CCN)NC(=O)[C@H](CC(C)C)NC(=O)[C@@H](Cc2ccccc2)NC(=O)[C@H](CCN)NC1=O)[C@@H](C)O [Compound 21] (Octanoyl-[Dab]T[Dab][Dab][Dab][dF]L[Dab]RT; lactam 4-C) | > 32 µg/mL | > 32 µg/mL | > 32 µg/mL | > 32 µg/mL | > 32 µg/mL | > 32 µg/mL | > 32 µg/mL | > 300 µM | >32 µg/mL | >32 µg/mL |
| CCCCCCCC(=O)N[C@@H](CCN)C(=O)N[C@H](C(=O)N[C@@H](CCN)C(=O)N[C@H]1CCNC(=O)[C@H]([C@@H](C)O)NC(=O)[C@H](CCN)NC(=O)[C@H](CCNC(=O)[C@@H](N)CCCNC(=N)N)NC(=O)[C@H](CC(C)C)NC(=O)[C@@H](Cc2ccccc2)NC(=O)[C@H](CCN)NC1=O)[C@@H](C)O [Compound 22] | > 32 µg/mL |  | > 32 µg/mL | > 32 µg/mL | > 32 µg/mL | > 32 µg/mL | > 32 µg/mL |  | >32 µg/mL | >32 µg/mL |
| CCCCCCCC(=O)N[C@@H](CCN)C(=O)N[C@H](C(=O)N[C@@H](CCN)C(=O)N[C@H]1CCNC(=O)[C@H]([C@@H](C)O)NC(=O)[C@H](CCN)NC(=O)[C@H](Cc2ccc(N)cc2)NC(=O)[C@H](CC(C)C)NC(=O)[C@@H](Cc2ccccc2)NC(=O)[C@H](CCN)NC1=O)[C@@H](C)O [Compound 25] | > 32 µg/mL |  | > 32 µg/mL | > 32 µg/mL |  | > 32 µg/mL | > 32 µg/mL |  | >32 µg/mL | >32 µg/mL |
| CCCCCCCC(=O)N[C@@H](CCN)C(=O)N[C@H](C(=O)N[C@@H](CCN)C(=O)N[C@H]1CCNC(=O)[C@H]([C@@H](C)O)NC(=O)[C@H](CCN)NC(=O)[C@H](CCCNC(=N)N)NC(=O)[C@H](CC(C)C)NC(=O)[C@@H](Cc2ccccc2)NC(=O)[C@H](CCN)NC1=O)[C@@H](C)O [Compound 26] |  |  | > 32 µg/mL | > 32 µg/mL |  | > 32 µg/mL | > 32 µg/mL |  | >32 µg/mL | >32 µg/mL |
| CCCCCCCC(=O)N[C@@H](CCN)C(=O)N[C@H](C(=O)N[C@@H](CCN)C(=O)N[C@H]1CCNC(=O)[C@H]([C@@H](C)O)NC(=O)[C@H](CCN)NC(=O)[C@H](CCN)NC(=O)[C@H](CC(C)C)NC(=O)[C@@H](Cc2ccccc2)NC(=O)[C@H](CCNC(=O)[C@@H](N)CCCNC(=N)N)NC1=O)[C@@H](C)O [Compound 31] (Octanoyl-[Dab]T[Dab][Dab][Dab](Arg)[dF]L[Dab][Dab]T; lactam 4-C) | > 32 µg/mL |  | > 32 µg/mL | > 32 µg/mL | > 32 µg/mL | > 32 µg/mL | > 32 µg/mL | > 300 µM | >32 µg/mL | >32 µg/mL |
| CCCCCCCC(=O)N[C@@H](CCN)C(=O)N[C@H](C(=O)N[C@H](CO)C(=O)N[C@H]1CCNC(=O)[C@H]([C@@H](C)O)NC(=O)[C@H](CCN)NC(=O)[C@H](CCN)NC(=O)[C@H](CC(C)C)NC(=O)[C@@H](Cc2ccccc2)NC(=O)[C@H](CCN)NC1=O)[C@@H](C)O [Compound 37] (Octanoyl-[Dab]T[dS][Dab][Dab][dF]L[Dab][Dab]T; lactam 4-C) | > 32 µg/mL |  | > 32 µg/mL | > 32 µg/mL | > 32 µg/mL | > 32 µg/mL | > 32 µg/mL | > 300 µM | >32 µg/mL | >32 µg/mL |
